This note sets out measurements from US20230192644A1, “PIPERIDINE-2,6-DIONES AS SMALL MOLECULE DEGRADERS OF HELIOS AND METHODS OF USE” (DANA-FARBER CANCER INSTITUTE, INC., priority 2020, published 2023).

Where two headings read alike, the source gives them in different places.

Test [1] addresses T1, IKZF1 (Homo sapiens, UniProt Q13422).
T1 construct: expressed in transfected cells
Briefly: GFP-IKZF1 cellular degradation assay (eGFP fusion/mCherry reporter, Flip-In 293 cells). The test is classed as cell-based. On the procedure: IKZF1A and IKZF2A were subcloned into mammalian pcDNA5/FRT Vector (Ampicillin and Hygromycin B resistant) modified to contain MCS-eGFP-P2A-mCherry. […] Following 2-3 passage cycle, FACS (FACSAria™ II, BD) was used to enrich for cells expressing eGFP and mCherry.
(§1) Cells stably expressing the IKZF1A, or IKZF2A GFP fusions with mCherry reporter were seeded at 30-50% confluency in 384-well plates with 50 μL FluoroBrite™ DMEM media (Thermo Fisher Scientific™ A18967) containing 10% FBS per well a day before compound treatment. Compound titrations were dispensed using a D300e Digital Dispenser (HP), normalized to 0.5% DMSO, and incubated with cells for 5 hours.
The assay plate was imaged immediately using an Acumen High Content Imager (TTP Labtech) with 488 nm and 561 nm lasers in 2 μm×1 μm grid per well format. […] A series of image analysis steps (‘image analysis pipeline’) was constructed. First, the red and green channels were aligned and cropped to target the middle of each well (to avoid analysis of heavily clumped cells at the edges), and a background illumination function was calculated for both red and green channels of each well individually and subtracted to correct for illumination variations across the 384-well plate from various sources of error. An additional step was then applied to the green channel to suppress the analysis of large auto fluorescent artifacts and enhance the analysis of cell specific fluorescence by way of selecting for objects under a given size, 30 A.U., and with a given shape, speckles. mCherry-positive cells were then identified in the red channel filtering for objects between 8-60 pixels in diameter and using intensity to distinguish between clumped objects. The green channel was then segmented into GFP positive and negative areas and objects were labeled as GFP positive if at least 40% of it overlapped with a GFP positive area. The fraction of GFP-positive cells/mCherry-positive cells in each well was then calculated, and the green and red images were rescaled for visualization. The concentrations that lead to half degradation at 5 h (DC50, 5h) were calculated using the nonlinear fit variable slope model (GraphPad Software).

In test [2] the test system is IKZF2. Briefly: GFP-IKZF2 cellular degradation assay (eGFP fusion/mCherry reporter, Flip-In 293 cells). The test is classed as cell-based. To be noted: Flip-In 293 cells stably expressing IKZF2 GFP fusion with mCherry reporter, 5 h. On the procedure:
IKZF1A and IKZF2A were subcloned into mammalian pcDNA5/FRT Vector (Ampicillin and Hygromycin B resistant) modified to contain MCS-eGFP-P2A-mCherry. Stable cell lines expressing eGFP-protein fusion and mCherry reporter were generated using Flip-In 293 system. Plasmid (0.3 μg) and pOG44 (4.7 μg) DNA were preincubated in 100 μL of Opti-MEM™ I (Gibco™, Life Technologies™) media containing 0.05 mg/mL Lipofectamine™ 2000 (Invitrogen™) for 20 min and added to Flip-In 293 cells containing 1.9 mL of DMEM media (Gibco™, Life Technologies™) per well in a 6-well plate format (Falcon, 353046). Cells were propagated for 48 h and were then transferred into a 10 cm^2 plate (Corning, 430165) in DMEM media containing 50 μg/mL of Hygromycin B (REF 10687010, Invitrogen™) as a selection marker. Following 2-3 passage cycle, FACS (FACSAria™ II, BD) was used to enrich for cells expressing eGFP and mCherry.
as §1
The assay plate was imaged immediately using an Acumen High Content Imager (TTP Labtech) with 488 nm and 561 nm lasers in […] per well format. The resulting images were analyzed using CellProfiler (Carpenter et al., Genome Biol. 2006, 7:R100). A series of image analysis steps (‘image analysis pipeline’) was constructed. First, the red and green channels were aligned and cropped to target the middle of each well (to avoid analysis of heavily clumped cells at the edges), and a background illumination function was calculated for both red and green channels of each well individually and subtracted to correct for illumination variations across the 384-well plate from various sources of error. An additional step was then applied to the green channel to suppress the analysis of large auto fluorescent artifacts and enhance the analysis of cell specific fluorescence by way of selecting for objects under a given size, 30 A.U., and with a given shape, speckles. mCherry-positive cells were then identified in the red channel filtering for objects between 8-60 pixels in diameter and using intensity to distinguish between clumped objects. The green channel was then segmented into GFP positive and negative areas and objects were labeled as GFP positive if at least 40% of it overlapped with a GFP positive area. The fraction of GFP-positive cells/mCherry-positive cells in each well was then calculated, and the green and red images were rescaled for visualization. The concentrations that lead to half degradation at 5 h (DC50, 5h) were calculated using the nonlinear fit variable slope model (GraphPad Software).

Where [3] appears, read: Flip-In 293 cells stably expressing IKZF1 GFP fusion with mCherry reporter, 5 h; read-out: GFP IKZF1 DC50.

T1 sequence (Q13422 83-213 isoform Q13422-7 limits assumed): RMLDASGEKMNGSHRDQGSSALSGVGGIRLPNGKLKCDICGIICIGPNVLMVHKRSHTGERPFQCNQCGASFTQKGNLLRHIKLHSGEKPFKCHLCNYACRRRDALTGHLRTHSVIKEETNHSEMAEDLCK
T1 sequence (Q96SW2 whole entry partner): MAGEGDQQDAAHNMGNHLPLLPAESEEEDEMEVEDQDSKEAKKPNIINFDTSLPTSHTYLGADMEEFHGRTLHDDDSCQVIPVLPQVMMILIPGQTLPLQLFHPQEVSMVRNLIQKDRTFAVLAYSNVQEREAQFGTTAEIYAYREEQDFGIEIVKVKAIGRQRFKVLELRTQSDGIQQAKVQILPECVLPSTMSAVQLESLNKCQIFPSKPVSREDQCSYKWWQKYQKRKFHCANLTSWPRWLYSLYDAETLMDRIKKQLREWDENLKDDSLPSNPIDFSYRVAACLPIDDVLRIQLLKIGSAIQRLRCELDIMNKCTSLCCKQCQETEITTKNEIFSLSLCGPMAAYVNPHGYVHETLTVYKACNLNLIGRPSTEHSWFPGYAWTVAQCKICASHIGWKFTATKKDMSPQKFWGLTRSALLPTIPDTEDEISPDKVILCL
T1 sequence (Q16531 whole entry partner): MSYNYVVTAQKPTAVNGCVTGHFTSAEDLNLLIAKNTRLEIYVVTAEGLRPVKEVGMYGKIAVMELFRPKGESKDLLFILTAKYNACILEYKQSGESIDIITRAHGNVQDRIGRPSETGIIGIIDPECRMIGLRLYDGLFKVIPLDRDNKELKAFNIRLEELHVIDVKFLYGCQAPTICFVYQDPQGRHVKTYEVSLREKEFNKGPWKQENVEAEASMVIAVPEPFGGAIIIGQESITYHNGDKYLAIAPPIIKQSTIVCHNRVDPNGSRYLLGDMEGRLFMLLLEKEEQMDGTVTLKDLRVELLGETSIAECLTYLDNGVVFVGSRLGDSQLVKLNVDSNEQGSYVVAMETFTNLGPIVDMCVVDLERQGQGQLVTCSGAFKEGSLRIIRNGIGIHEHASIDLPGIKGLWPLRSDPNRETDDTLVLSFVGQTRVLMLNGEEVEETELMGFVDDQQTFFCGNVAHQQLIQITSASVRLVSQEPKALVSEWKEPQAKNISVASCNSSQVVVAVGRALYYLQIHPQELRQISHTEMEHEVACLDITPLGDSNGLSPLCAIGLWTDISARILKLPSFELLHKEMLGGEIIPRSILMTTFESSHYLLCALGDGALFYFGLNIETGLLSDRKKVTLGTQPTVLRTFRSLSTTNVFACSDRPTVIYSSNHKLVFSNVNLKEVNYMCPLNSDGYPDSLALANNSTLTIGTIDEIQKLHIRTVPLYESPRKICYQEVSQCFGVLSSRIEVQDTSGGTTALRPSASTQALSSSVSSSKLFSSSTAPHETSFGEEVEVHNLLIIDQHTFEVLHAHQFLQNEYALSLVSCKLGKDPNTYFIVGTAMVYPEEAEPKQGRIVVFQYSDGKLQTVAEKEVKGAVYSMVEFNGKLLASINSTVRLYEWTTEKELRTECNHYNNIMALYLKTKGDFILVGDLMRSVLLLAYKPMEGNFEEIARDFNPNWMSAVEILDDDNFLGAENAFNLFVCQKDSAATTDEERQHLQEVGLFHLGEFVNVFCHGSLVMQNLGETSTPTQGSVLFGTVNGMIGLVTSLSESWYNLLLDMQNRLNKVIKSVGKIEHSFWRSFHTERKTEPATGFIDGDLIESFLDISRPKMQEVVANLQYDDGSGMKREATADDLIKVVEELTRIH

The term DC50 denotes the concentration at which degradation of the target reaches its halfway point. Take `CC(CC(=O)Nc1cccnc1Cl)c1cccc(NC2=CC(=O)N(C3CCC(=O)NC3=O)C2=O)c1` (stereo not drawn) [Compound 7]: the DC50 in test [1] (setting [3]) was 23 nM; in test [2], 48 nM.

Consider `CC(CC(=O)Nc1ccc(Cl)nc1)c1cccc(NC2=CC(=O)N(C3CCC(=O)NC3=O)C2=O)c1` (stereo not drawn) [Compound 8], for which the DC50 was found to be 10 nM in test [1] (setting [3]) and 17 nM in test [2].

As to `CC(CC(=O)Nc1ccnc(Cl)c1)c1cccc(NC2=CC(=O)N(C3CCC(=O)NC3=O)C2=O)c1` (stereo not drawn) [Compound 9], the DC50 in test [1] (setting [3]) amounted to 80 nM; in test [2], 85 nM.

Take `Cc1ccc(NC(=O)CC2(c3cccc(NC4=CC(=O)N(C5CCC(=O)NC5=O)C4=O)c3)CCOCC2)cc1Cl` (stereo not drawn) [Compound 18]: the DC50 amounted to 39 nM in test [1] (setting [3]) and 8.8 nM in test [2].

Consider `Cc1ccc(NC(=O)C2CC2c2cccc(NC3=CC(=O)N(C4CCC(=O)NC4=O)C3=O)c2)cc1Cl` (stereo not drawn) [Compound 21], for which the DC50 in test [1] (setting [3]) came out at 2 nM; in test [2], 4.4 nM.

As for `O=C1CCC(N2C(=O)C=C(Nc3cccc(C4CC(C(=O)Nc5cccc(C(F)(F)F)c5)C4)c3)C2=O)C(=O)N1` (stereo not drawn) [Compound 22], the DC50 in test [1] (setting [3]) is 14 nM; in test [2], 134 nM.

As to `O=C1CCC(N2C(=O)C=C(Nc3cccc([C@H]4CNCC4C(=O)Nc4cccc(C(F)(F)F)c4)c3)C2=O)C(=O)N1` (stereo partly drawn) [Compound 23], the results for the DC50 in test [1] (setting [3]) and in test [2] were 38 nM and 101 nM, respectively.

For `CC(c1cccc(NC2=CC(=O)N(C3CCC(=O)NC3=O)C2=O)c1)N1CC(c2ccccc2)C1` (stereo not drawn) [Compound 25], the DC50 in test [1] (setting [3]) worked out at 5.8 nM; in test [2], 13 nM.

Turning to `CC(c1cccc(NC2=CC(=O)N(C3CCC(=O)NC3=O)C2=O)c1)N1CC(Cc2ccccc2)C1` (stereo not drawn) [Compound 26], the DC50 in test [1] (setting [3]) is 2.8 nM; in test [2] it was 8.9 nM.

As to `CC(c1cccc(NC2=CC(=O)N(C3CCC(=O)NC3=O)C2=O)c1)N1CC(Oc2ccccc2)C1` (stereo not drawn) [Compound 27], the DC50 turned out to be 6.4 nM in test [1] (setting [3]) and 19 nM in test [2].

With `Cc1ccc(NC(=O)CC(c2cccc(NC3=CC(=O)N(C4CCC(=O)NC4=O)C3=O)c2)C(C)C)cc1Cl` (stereo not drawn) [Compound 30, N-(3-chloro-4-methylphenyl)-3-(3-((1-(2,6-dioxopiperidin-3-yl)-2,5-dioxo-2,5-dihydro-1H-pyrrol-3-yl)amino)phenyl)-4-methylpentanamide], the DC50 was found to be 50 nM in test [1] (setting [3]) and 2.2 nM in test [2].

Take `Cc1ccc(NC(=O)CN(C)c2cccc(NC3=CC(=O)N(C4CCC(=O)NC4=O)C3=O)c2)cc1Cl` (stereo not drawn) [Compound 44, N-(3-chloro-4-methylphenyl)-2-[(3-{[1-(2,6-dioxopiperidin-3-yl)-2,5-dioxo-2,5-dihydro-1H-pyrrol-3-yl]amino}phenyl)(methyl)amino]acetamide]: the DC50 in test [1] (setting [3]) stood at 3.7 nM; in test [2], 6.9 nM.

Take `CN(CCc1ccc(C(F)(F)F)c(Cl)c1)Cc1cccc(NC2=CC(=O)N(C3CCC(=O)NC3=O)C2=O)c1` (stereo not drawn) [Compound 48, 3-(3-((-(((3-chloro-4-(trifluoromethyl)phenethyl)(methyl)amino)methyl)phenyl)amino)-2,5-dioxo-2,5-dihydro-1H-pyrrol-1-yl)piperidine-2,6-dione]: the DC50 is 3.7 nM in test [1] (read-out: GFP IKZF1 DC50; Flip-In 293 cells stably expressing IKZF1 GFP fusion with mCherry reporter, 5 h) and 19 nM in test [2].

On to `CC(C)(NCc1cccc(C(F)(F)F)c1)c1cccc(NC2=CC(=O)N(C3CCC(=O)NC3=O)C2=O)c1` (stereo not drawn) [Compound 64], for which the 50% degradation concentration (DC50) is 6.8 nM in test [1] (setting [3]) and 9.2 nM in test [2].

With `CN(C)CC(CC(=O)Nc1ccc(C(F)(F)F)c(Cl)c1)c1cccc(NC2=CC(=O)N(C3CCC(=O)NC3=O)C2=O)c1` (stereo not drawn) [Compound 73, N-(3-chloro-4-(trifluoromethyl)phenyl)-4-(dimethylamino)-3-(3-((1-(2,6-dioxopiperidin-3-yl)-2,5-dioxo-2,5-dihydro-1H-pyrrol-3-yl)amino)phenyl)butanamide], the DC50 in test [1] (setting [3]) came to 5.2 nM; in test [2], 4.4 nM.
